Source: patent publication US12180198B2, “Ribocil C antibiotics effective for Gram-negative pathogens” (THE BOARD OF TRUSTEES OF THE UNIVERSITY OF ILLINOIS, priority 2018, dated 2024)
Values after ≈ are worked out from the molar mass of the structure shown.

Columns and labels:
S. aureus ATCC 29213 = assay: MIC, micro-dilution broth method; type: cell-based; conditions: Staphylococcus aureus, ATCC29213, S. aureus ATCC 29213; read-out: MIC
Protocol: (§1) Compounds were evaluated against a panel of Gram-positive and Gram-negative organisms. MIC values were determined using the micro-dilution broth method as outlined by the Clinical and Laboratory Standards Institute (clsi.org/) and are listed in […]. All experiments were performed in biological triplicate.
(§2) Antimicrobial susceptibility tests. Susceptibility testing was performed in biological triplicate, using the micro-dilution broth method as outlined by the Clinical and Laboratory Standards Institute. Bacteria were cultured with cation-adjusted Muller-Hinton broth (Sigma-Aldrich, Cat #90922) in round-bottom 96-well plates (Corning, Cat #3788). Human serum (pooled gender, 0.2 μm filtered) was purchased from BioIVT (Hicksville, NY).

A. baumannii W41979 = assay: MIC, micro-dilution broth method; type: cell-based; conditions: Acinetobacter baumannii; A. baumannii W41979; read-out: MIC
Protocol: as §1, §2

E. coli BAA-2340 = assay: MIC, micro-dilution broth method; type: cell-based; conditions: Escherichia coli, BAA2340; E. coli BAA-2340; read-out: MIC
Protocol: as §1, §2

E. coli MG1655 = assay: MIC, micro-dilution broth method; type: cell-based; conditions: Escherichia coli; E. coli MG1655; read-out: MIC
Protocol: as §1, §2

P. aeruginosa PA01 = assay: MIC, micro-dilution broth method; type: cell-based; conditions: Pseudomonas aeruginosa; P. aeruginosa PA01; read-out: MIC
Protocol: as §1, §2

E. cloacae ATCC 29893 = assay: MIC, micro-dilution broth method; type: cell-based; conditions: Enterobacter cloacae, ATCC29893; E. cloacae ATCC 29893; read-out: MIC
Protocol: as §1, §2

E. coli AR-0493 = assay: MIC, micro-dilution broth method; type: cell-based; conditions: Escherichia coli, AR0493; E. coli AR-0493; read-out: MIC
Protocol: as §1, §2

E. coli ΔrfaC JW3596 = assay: MIC, micro-dilution broth method; type: cell-based; conditions: Escherichia coli
Protocol: as §1, §2

K. pneumoniae S47889 = assay: MIC, micro-dilution broth method; type: cell-based; conditions: Klebsiella pneumoniae; K. pneumoniae S47889; read-out: MIC
Protocol: as §1, §2

E. coli ΔtolC JW5503 = assay: MIC, micro-dilution broth method; type: cell-based; conditions: Escherichia coli
Protocol: as §1, §2

E. coli FabI = E. coli FabI (Escherichia coli, UniProt P0AEK4); assay: In vitro FabI inhibition assay; type: biochemical; conditions: 20 nM enzyme
E. coli FabI, sequence (P0AEK4 whole entry): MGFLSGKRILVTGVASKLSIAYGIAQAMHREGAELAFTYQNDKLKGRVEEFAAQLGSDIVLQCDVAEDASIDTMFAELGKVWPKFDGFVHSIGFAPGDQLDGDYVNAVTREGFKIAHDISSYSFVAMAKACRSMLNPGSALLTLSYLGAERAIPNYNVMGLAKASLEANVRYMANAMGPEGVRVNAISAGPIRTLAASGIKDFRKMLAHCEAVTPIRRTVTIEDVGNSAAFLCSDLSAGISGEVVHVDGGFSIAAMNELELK
Protocol: Expression and purification of E. coli FabI. E. coli BL21 (DE3) pLysS (Novagen) were transformed with pET15-ecFabI. Overnight culture (10 mL) in LB supplemented with 50 μg/mL ampicillin from single colony was diluted into 1 L LB+50 μg/mL ampicillin. Cells were grown at 37° C., 250 rpm until OD600 reached 0.8. Culture was cooled to 18° C. and induced with 0.5 mM IPTG for 18 h at 18° C. Cells were harvested by centrifugation (5,000×g, 10 min, 4° C.). Cell pellets were flash frozen and store at −20° C. pending purification. Frozen cell pellets were thawed on ice and resuspended (5 mL per gram wet pellet, typically 20-30 mL) with 0.5% CHAPS, 1 mM PMSF, 1 μg/mL leupeptin, 1 μg/mL pepstatin A, and 2 μg/mL aprotinin in binding buffer [20 mM Tris (pH 7.9), 500 mM NaCl, 5 mM imidazole]. Cells were lysed by sonication on ice (30%, 10 s pulse, 20 s rest, 5 min total). Lysate was clarified by centrifugation (35,000×g, 1 h, 4° C.) and filtration through 0.2 μm syringe filter. Lysate was incubated with 5 mL Co-NTA agarose (HisPur cobalt resin, Thermo-Fisher Scientific Cat #89965, pre-equilibrated with binding buffer) for 30 min at 4° C. with gentle rocking. Agarose-containing lysate was transferred to column and flow through discarded. Column was washed with 2 column volumes of binding buffer followed by 10 column volumes of wash buffer [20 mM Tris (pH 7.9), 500 mM NaCl, 60 mM imidazole]. Protein was eluted with 15 mL elution buffer [20 mM Tris (pH 7.9), 500 mM NaCl, 300 mM imidazole]. […] Protein concentration was determined by BCA assay (ThermoFisher Cat #23227).
In vitro FabI inhibition assay. […] Plate was placed in plate-reader (SpectraMax 190, Molecular Devices) under temperature control (25° C.), and temperature was allowed to equilibrate. […] After shaking for 5 s, reaction progress was monitored by absorbance at 340 nm every 15 s for 90 min. Linear portion of reaction progress curve was fit using plate-reader software (SoftMax Pro 7.0). Percent activity was calculated relative to DMSO-only and no-enzyme controls in each plate. […]

[1] = test system: Gram-negative ESKAPE pathogens and E. coli; assay: MIC, micro-dilution broth method (text summary); type: cell-based; conditions: Gram-negatives with intact outer membranes
Protocol: FIG. 2. Antimicrobial activity of Debio-1452 and derivatives. MIC values were determined using the micro-dilution broth method as outlined by the Clinical and Laboratory Standards Institute (clsi.org/). All experiments were performed in biological triplicate.
as §2

## Cc1c(CN(C)C(=O)/C=C/c2cnc3c(c2)CC(NC(=O)OC(C)(C)C)C(=O)N3)oc2ccccc12 (stereo not drawn) [compound 8, tert-butyl(E)-(6-(3-(methyl((3-methylbenzofuran-2-yl)methyl)amino)-3-oxoprop-1-en-1-yl)-2-oxo-1,2,3,4-tetrahydro-1,8-naphthyridin-3-yl)carbamate]
S. aureus ATCC 29213
  MIC: 0.016 µg/mL (≈ 0.0326 µM)
A. baumannii W41979
  MIC: > 32 µg/mL
E. coli BAA-2340
  MIC: > 32 µg/mL
E. coli MG1655
  MIC: > 32 µg/mL
P. aeruginosa PA01
  MIC: > 32 µg/mL
E. cloacae ATCC 29893
  MIC: > 32 µg/mL
E. coli AR-0493
  MIC: > 32 µg/mL
E. coli ΔrfaC JW3596
  MIC: 0.25 µg/mL (≈ 0.51 µM)
K. pneumoniae S47889
  MIC: > 32 µg/mL
E. coli ΔtolC JW5503
  MIC: 0.125 µg/mL (≈ 0.255 µM)
E. coli FabI
  inhibition of E. coli FabI in vitro (in words): potent FabI inhibitors
[1]
  activity (in words): no activity
